Assays:
[1] = tested on: bFGF-stimulated formation of new blood vessel in the Matrigel plug; test: Matrigel plug perfusion in vivo assay (anti-angiogenic efficacy); conditions: mice, Matrigel and bFGF
Excerpt: The assay uses Matrigel, a gelatinous protein mixture secreted by mouse tumor cells and marketed by BD Biosciences, to duplicate tissue environments. Matrigel is liquid at room temperature, but when injected into the animal, forms a solid plug. If a growth vessel stimulant such as basic fibroblast growth factor (bFGF) is mixed with the Matrigel, the bFGF stimulates the formation of new blood vessel in the plug, which can be monitored in the animal via fluorescence techniques. In the current study, Matrigel is injected either alone or with bFGF subcutaneously into mice.

white blood cells = conditions: mice, about 2 mg/kg dose, 28 days
Protocol: A group of 6 mice are administered various dosages of the cobalamin-paclitaxel bioconjugate prepared in accordance with Example 1 over a 28 day period. The effects to the viable circulating endothelial cell precursors and white blood cells are measured after 28 days.

SMILES: CC(=O)O[C@H]1C(=O)[C@@]2(C)C([C@H](OC(=O)c3ccccc3)[C@]3(O)C[C@H](OC(=O)[C@H](OC(=O)C[NH+](C)CC[CH2][Co+][N]4/C5=C(/C)C6=N/C(=C\C7=NC(=C(/C)C8=NC(C(C)C4C(CC(N)=O)C5(C)CCC(=O)NCC(C)OP(=O)([O-])OC4C(CO)OC(n5cnc9cc(C)c(C)cc95)C4O)C(C)(CC(N)=O)C8CCC(N)=O)/C(C)(CC(N)=O)C7CCC(N)=O)C(C)(C)C6CCC(N)=O)[C@@H](NC(=O)c4ccccc4)c4ccccc4)C(C)=C1C3(C)C)[C@]1(OC(C)=O)COC1C[C@@H]2O.[Cl-] (some centres unmarked) [cobalamin-paclitaxel bioconjugate, Cbl—(CH2)3N(CH3)CH2COO-2′-PTX]
- anti-angiogenic performance compared with DC101 [1]: better performance than that of DC101
- toxicity by white blood cell count (white blood cells): no neutropenia
